Patent US20070015830A1, “Use of a retinoid type compound to modulate in vivo the decoupling activity of the protein UCP2” (priority 1997, published 2007)
Entries after “also recorded” stand apart in the source; their conditions may differ. One block for each molecule: values may come before it.

Assays:
[1] = target: T1, UCP2 protein (Mus musculus, UniProt P70406); assay: Respiration stimulation factor in mitochondria of recombinant yeast expressing UCP2; format: biochemical, mice; conditions: for activation of the activity of UCP2 protein: pH not stated
T1 construct: lacking the untranslated regions 5′ and 3′ is obtained by enzymatic amplification; expressed in transfected cells; host or cells: Saccharomyces cerevisiae diploid W303, vector pYeDP-1/8-10; isolated mitochondria
T1 sequence (P70406 1-309): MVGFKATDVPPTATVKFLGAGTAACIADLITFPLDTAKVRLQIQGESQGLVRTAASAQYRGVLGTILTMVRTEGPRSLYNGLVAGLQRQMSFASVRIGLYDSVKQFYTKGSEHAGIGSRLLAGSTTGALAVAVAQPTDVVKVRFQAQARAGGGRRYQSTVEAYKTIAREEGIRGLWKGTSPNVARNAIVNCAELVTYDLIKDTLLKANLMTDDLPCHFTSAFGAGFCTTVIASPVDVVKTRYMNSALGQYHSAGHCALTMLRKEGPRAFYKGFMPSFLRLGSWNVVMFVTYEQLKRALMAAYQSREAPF
Excerpt: The effect of this type of compounds particularly on the activity of UCP2 protein, has been shown on a yeast model. The test consists in constructing yeast layers of recombinant Saccharomyces cervisiae yeasts being capable of expressing UCP2 protein, extracting UCP2 proteins from the mitochondria and measuring the activity of UCP2 protein in the presence or in the absence of retinoic acid. In the model which has been retained, the uncoupling activity of the UCP2 proteins is quantitatively measured by means of the factor of stimulation of respiration.
(§1) This factor corresponds to the ratio of respiration and baseline respiration, measured or in the absence of retinoic acid (when measurements are made at a constant pH but varying the concentration of retinoic acid) or at pH 6.8 (when measurements are made at a given concentration of retinoic acid, but varying the pH).
(§2) Respiration is determined by measurement of the quantity of consumed oxygen, expressed in nanomoles of oxygen per minute and milligram of mitochondrial proteins, the consumption of oxygen being directly linked to the quantity of substrate having been consumed by the mitochondria (in calories).
The cDNA of UCP2 proteins of mice (C. Fleury et al. (1997) Uncoupling protein-2: A novel gene linked to obesity and hyperinsulinaemia, Nature Genetics, 15, 269-272) lacking the untranslated regions 5′ and 3′ is obtained by enzymatic amplification with the following oligonucleotides:
The resulting DNA product is repaired with a Kleenow enzyme, thereafter cut with EcoRl and Sacl. This forces donation in the pYeDP-1/8-10 vector. In each case, the insertion of cDNA encoding for UCP2 protein in the pYeDP vector has been sequenced so as to verify that the encoding sequence had the expected properties. The UCP2-expressing pYeDP-YCP vector is introduced in a diploid W303 strain of Saccharomyces cervisiae yeast ([…]; ade2-10; his3-11,15; leu2-3,112; ura3-1; canl-100; trp-) by electroporation and the transformants are selected for their […].
A process derived from that described by Guérin et al. (Guérin B., Labbe P. et Somlo, M. (1979) Methods Enzymol; 55, 149-159) is used. 36 hours before the extraction of the mitochondria a pre-culture in SP-medium (0.67% o nitrogenated yeast base, 0.1% KH2PO4, 0.12% (NH4)2SO4, 0.1% glucose, 2% lactic acid, 0.1% casaminoacids, 20 mg/l triptophane, 40 mg/1 adenine of pH 4.5), 10 or 12 hours before the extraction, a dilution in SP-medium (2% galactose, 0.67% nitrogenated yeast base, 0.1% casaaminoacids, 20 mg/l triptophane and […] adenine, at an optical density of 0.35-0.4).
Protoplasts are prepared by enzymatic digestion with cytohelicase and the mitochondria are isolated by differential centrifugation after homogenization of the protoplasts obtained by enzymatic digestion of the cell wall.
Only quantitative measurement of mitochondrial respiration has been made for UCP2. This measurement is made at 20° C. in an oxygen-electrode chamber (Clark electrode) commercialized by the company HANSATECH. The incubation medium contains 0.65M mannitol, […] Tris/Maleate, 0.5 mM EGTA, 2 mM MgC12, 10 mMK2hpo4, 1 mg/ml ([…]) albumin pH6.8).
Mitochondria concentration is 0.15 mg/ml. NADH (3 mM) is used as substrate as mitochondria of Saccharomyces cervisiae are capable of oxidizing NADH of external origin).
The tests are performed varying any of the pH or the terinoïc acid concentration in the medium. The concentrations of free retinoic acid are esteemed up to some tens of nanomars (determined by fixing the molar ratio retinoic acid:albumin). The concentration of albumin is 0.1 mg/ml […]) in the respiration buffer and the tested pH are respectively 6.8; 7.1; 7.3 or 7.5. The further components of the buffer are identical to those in example 1 and in the same concentrations.

[2] = target: T1, UCP2 protein; assay: as above; format: biochemical, mice; conditions: FIG. 5; molar ratio acid:albumin 3:1 and 4:1
[3] = target: T2, UCP1 protein (Rattus norvegicus, UniProt P04633); assay: Membrane potential of yeast mitochondria expressing UCP1; format: biochemical; conditions: FIG. 6b, molar ratio retinoic acid:albumin 2:1 and 4:1
T2 construct: The cDNA of the UCP1 protein which lacks the untranslated regions at 3′ and 5′ is obtained by enzymatic amplification; expressed in transfected cells; host or cells: Saccharomyces cerevisiae, vector pYeDP-1/8-10 (plasmid pYeDP-UCP+); isolated mitochondria
T2 sequence (P04633 1-307): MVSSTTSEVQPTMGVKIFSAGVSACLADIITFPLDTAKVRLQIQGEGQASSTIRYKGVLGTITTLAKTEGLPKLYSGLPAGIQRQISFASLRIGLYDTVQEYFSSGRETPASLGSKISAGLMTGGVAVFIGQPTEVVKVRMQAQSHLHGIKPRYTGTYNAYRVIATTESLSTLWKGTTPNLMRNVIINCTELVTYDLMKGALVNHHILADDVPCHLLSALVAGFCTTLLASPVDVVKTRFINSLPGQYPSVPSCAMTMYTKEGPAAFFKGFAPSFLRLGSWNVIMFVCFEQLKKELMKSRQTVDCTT
Excerpt: There is also a qualitative method for determining the uncoupling activity of an UCP protein. It is the measurement of the mitochondrial membrane potential the reduction of which is an evidence of the decrease of the quality of the recovery of chemical energy at the level of the mitochondria. Activation of an uncoupling protein is reflected by de decrease of the membrane potential followed by an acceleration of the respiration.
FIG. 6 evidences the variation in the membrane potentials and respiration of mitochondria in yeasts (reflecting the uncoupling activity of UCP1 protein) under the effect of the retinoic acid. The upper curve reflects oxygen consumption (expressed in nanomoles of oxygen per minute per milligram of mitochondrial proteins) and the lower curve the membrane potentials. […]
This activity may be measured qualitatively or quantitatively, with the help of the parameters: • qualitatively: • The mitochondrial membrane potential; the increase of the activity of an uncoupling protein is reflected by a reduction of the membrane potential and a resulting increase in oxygen consumption. In turn, the increase corresponds to an increase in dissipation of energy. • quantitatively: • mitochondrial respiration (oxygen consumption) which is linked directly to the quantity of substrate consumed by the mitochondria. […]

[4] = target: T2, UCP1 protein; assay: Respiration stimulation factor in mitochondria of recombinant yeast expressing UCP1; format: biochemical
Experimental: as §1, §2
FIG. 2 represents a curve of response of yeast mitochondria to retinoic acid. In the abscissa, there appears the molar ratio of retinoic acid/albumin (albumin concentration: 1 micromole within the medium); in the ordinate, there appears the factor of stimulation of the baseline respiration. FIG. 2a was obtained at pH 6.8 and figure at pH 7.3.
The construction of the expression vectors, the recombinant Saccharomyces cervisiae strains, the preparation of the mitochondria and the measurement of the activity of the UCP1 protein are described in the publication of Arechaga et al. already cited in example 1. […]

[5] = tested on: yeast mitochondria lacking UCP proteins; assay: Membrane potential of yeast mitochondria lacking UCP proteins (control); format: biochemical, Saccharomyces cervisiae; conditions: FIG. 6a
Excerpt: FIG. 6 evidences the variation in the membrane potentials and respiration of mitochondria in yeasts (reflecting the uncoupling activity of UCP1 protein) under the effect of the retinoic acid. The upper curve reflects oxygen consumption (expressed in nanomoles of oxygen per minute per milligram of mitochondrial proteins) and the lower curve the membrane potentials. FIG. 6a corresponds to measurements made in yeast mitochondria lacking UCP proteins and FIG. 6b corresponds to measurements made in yeast mitochondria wherein UCP1 protein is expressed. • N: designates the addition of NADH (respitation substrate) • R: designates the addition of retinoic acid (respectively at a molar ratio retinoic acid:albumin of 2:1 and 4:1) • G: designates the addition of 1 millimolar guanosine diphosphate (an inhibitor of UCP1 protein).

activation of the activity of UCP2 protein [1]: No activation
SMILES: CC1=CC(=O)CC(C)(C)C1(O)/C=C/C(C)=C\C(=O)O (centres unmarked) [abscissic acid]

activation of the activity of UCP2 protein [1]: No activation
SMILES: CCCCC/C=C\C/C=C\C/C=C\C/C=C\CCCC(=O)O [arachidonic acid]

change of UCP2 activity with the pH and the increase of the concentration of palmitic acid [2]: slight increase
SMILES: CCCCCCCCCCCCCCCC(=O)O [palmitic acid]
activation of the activity of UCP2 protein [1]: does not have any effect; also recorded: not the case

change of the activity of UCP2 protein when the concentration of retinoic acid increases ([1]; molar ratio retinoic acid/albumin 3:1 vs 4:1, FIGS. 4a and 4b): slight increase
increase of the activity of UCP2 (respiration stimulation factor) ([1]; pH 7.3, FIG. 2b): the increase is very sensitive
response of UCP1 protein (respiration stimulation factor) ([4]; pH 6.8, FIG. 2a): responds
SMILES: CC1=C(/C=C/C(C)=C/C=C/C(C)=C/C(=O)O)C(C)(C)CCC1 [retinoic acid, all-trans retinoic acid]
increase of the activity of UCP2 (respiration stimulation factor) ([1]; pH 6.8, FIG. 2a): no notable increase; also recorded: not the case
activation of the activity of UCP2 protein [1]: activates the dissipation of energy by UCP2
effect on mitochondrial membrane potential [3]: induces a reduction of the membrane potential
response / uncoupling activity of UCP1 protein ([4]; pH not stated, FIG. 3a for palmitic acid): capable of increasing the uncoupling activity
effect on mitochondrial membrane potential [5]: not observed

activation of the activity of UCP2 protein [1]: No activation
SMILES: CC1=C(/C=C/C(C)=C/C=C/C(C)=C/CO)C(C)(C)CCC1 [retinol]

activation of the activity of UCP2 protein [1]: No activation
SMILES: O=C(O)c1ccccc1O [salicylic acid]
